Experimental data taken from ChEMBL document CHEMBL3045341, “Triterpene saponins of Quillaja saponaria show strong aphicidal and deterrent activity against the pea aphid Acyrthosiphon pisum” (2012).
Values after ≈ are worked out from the molar mass of the structure shown.

Assays:
Format in all cases: functional
Details in all cases: 72 h
Acyrthosiphon pisum [1] = test: Insecticidal activity against Acyrthosiphon pisum (pea aphid) assessed as mortality at 5 mg/ml after 3 days by no-choice assay
Acyrthosiphon pisum [2] = test: Insecticidal activity against Acyrthosiphon pisum (pea aphid) assessed as mortality at 1 mg/ml after 3 days by no-choice assay
Acyrthosiphon pisum [3] = test: Insecticidal activity against Acyrthosiphon pisum (pea aphid) after 3 days by no-choice assay

| Structure (SMILES) | mortality at 5000 µg/mL (Acyrthosiphon pisum [1]) | mortality at 1000 µg/mL (Acyrthosiphon pisum [2]) | LC50 (Acyrthosiphon pisum [3]) |
| --- | --- | --- | --- |
| C[C@@H]1CC[C@@]2(OC1)O[C@H]1C[C@H]3[C@@H]4CC=C5C[C@@H](O)CC[C@]5(C)[C@H]4CC[C@]3(C)[C@H]1[C@@H]2C [DISOGENIN] | 18% | – | – |
| C[C@@H]1CC[C@@]2(OC1)O[C@H]1[C@@H](O)[C@H]3[C@@H]4CC[C@H]5C[C@@H](O[C@@H]6O[C@H](CO)[C@H](O[C@@H]7O[C@H](CO)C(O)[C@H](O[C@@H]8OC[C@@H](O)[C@H](O)[C@H]8O)[C@H]7O[C@@H]7O[C@H](CO)[C@H](O)[C@H](O[C@@H]8O[C@H](CO)[C@@H](O)[C@H](O)[C@H]8O)[C@H]7O)[C@H](O)[C@H]6O)[C@H](O)C[C@]5(C)[C@H]4CC[C@]3(C)[C@H]1[C@@H]2C (some centres undefined) [DIGITONIN] | 14% | 76% | 0.45 mg/L (≈ 0.366 µM) |
